Structures are written as SMILES. Like-named read-outs stand apart in the source and are kept apart here.

As a reminder, the IC50 is the midpoint of a concentration-inhibition curve.

Experiment [1] relates to EP13 multi protease inhibitor resistant virus. Kind of experiment: Anti-viral activity against resistant virus EP13 in MT4 cells. Format: cell-based, HIV-1. A digest of the protocol: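 MT4 cells infected for 1 h at 37 °C, MOI 100×TCID50, then diluted 6-fold onto pre-diluted compound and cultured 5 days (5% CO2). Viable-cell DNA content estimated by propidium iodide. EP13 carries protease mutations M46I, L63P, A71V, V82F/L, I84V, no RT mutations.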

Another experiment concerns HIV-1 (strain IIIB). Kind of experiment: Antiviral activity assay in MT4 cells (propidium iodide based). The following applies: wild type HIV-1 virus, MT4 cells, read-out: Wildtype virus - IC50. It is filed as cell-based. The essentials: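 Compound serial dilutions in RPMI/FCS received MT4 cells pre-infected 1 hr at 37°C with HIV-1 IIIB at 100×TCID50. After 5 days' culture and Nonidet-40 lysis, well DNA content was measured by propidium iodide dye; mock-infected cells served as control.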

Experiment [2] relates to D545701-14 multi protease inhibitor resistant virus. Nature of the experiment: Anti-viral activity against resistant virus D545701-14 in MT4 cells. It is filed as cell-based, HIV-1.
[3] abbreviates: Human immunodeficiency virus 1, MT4, read-out: EP13 mutant IC50, EP13 multi protease inhibitor resistant virus, MT4 cells.
[4] abbreviates: Human immunodeficiency virus 1, IIIB.
The mark [5] stands for this setting: Human immunodeficiency virus 1, MT4, read-out: D545701-14 mutant - IC50, D545701-14 multi protease inhibitor resistant virus, MT4 cells.
The mark [6] stands for this setting: EP13 multi protease inhibitor resistant virus, MT4 cells, read-out: EP13 mutant IC50.
The mark [7] stands for this setting: D545701-14 multi protease inhibitor resistant virus, MT4 cells, read-out: D545701-14 mutant - IC50.

Take `CC(C)CN(C[C@@H](O)[C@H](Cc1ccc(OCCN(C)C)cc1)NC(=O)O[C@H]1CO[C@H]2OCC[C@H]21)S(=O)(=O)c1ccc2c(c1)OCO2` [Compound 359, (3R,3aS,6aR)hexahydrofuro[2,3-b]furan-3-yl (1S,2R)-3-[(1,3-benzodioxol-5-ylsulfonyl)(isobutyl)amino]-2-hydroxy-1-[4-(2-[dimethylamino]ethoxy)benzyl]propylcarbamate]: the IC50 (in experiment [1] (setting [3]); in the experiment with HIV-1 (strain IIIB) (setting [4]); in experiment [2] (setting [5])) was 0.01 to 0.1 µM each time.

As for `CC(C)CN(C[C@@H](O)[C@H](Cc1ccc(OCc2ccccc2CS(=O)(=O)c2ccccc2)cc1)NC(=O)O[C@H]1CO[C@H]2OCC[C@H]21)S(=O)(=O)c1ccc2c(c1)OCO2` [Compound 388, (3R,3aS,6aR)-hexahydrofuro[2,3-b]furan-3-yl (1S,2R)-3-[(1,3-benzodioxol-5-ylsulfonyl)(isobutyl)amino]-2-hydroxy-1-[4-{(2-[(phenylsulfonyl)methyl]benzyl}oxy)benzyl]propylcarbamate], the IC50 (in experiment [1] (setting [3]); with HIV-1 (strain IIIB) (setting [4]); in experiment [2] (setting [5])) was 0.001 to 0.01 µM in each case.

`Cc1cc(S(=O)(=O)N(CC(C)C)C[C@@H](O)[C@H](Cc2ccc(OCc3ccccn3)cc2)NC(=O)O[C@H]2CO[C@H]3OCC[C@H]32)ccc1O` [Compound 295]: the concentration for half-maximal inhibition (IC50) (in experiment [1] (setting [3]); with HIV-1 (strain IIIB) (setting [4]); in experiment [2] (setting [5])) was 0.001 to 0.01 µM throughout.

Regarding `CC(C)CN(C[C@@H](O)[C@H](Cc1ccc(OCCc2ccccc2)cc1)NC(=O)O[C@H]1CO[C@H]2OCC[C@H]21)S(=O)(=O)c1ccc2c(c1)OCO2` [Compound 352, (3R,3aS,6aR)hexahydrofuro[2,3-b]furan-3-yl (1S,2R)-3[(1,3-benzodioxol-5-ylsulfonyl)(isobutyl)amino]-2-hydroxy-1-[4-(phenethyloxy)benzyl]propylcarbamate], the values for the IC50 (in experiment [1] (setting [3]); with HIV-1 (strain IIIB) (setting [4]); in experiment [2] (setting [5])) were below 0.001 µM, below 0.001 µM and 0.001 to 0.01 µM, respectively.

Regarding `CC(C)CN(C[C@@H](O)[C@H](Cc1ccc(OCc2ccc(F)c(F)c2)cc1)NC(=O)O[C@H]1CO[C@H]2OCC[C@H]21)S(=O)(=O)c1ccc2c(c1)OCO2` [Compound 379, (3R,3aS,6aR)-hexahydrofuro[2,3-b]furan-3-yl (1S,2R)-3[(1,3-benzodioxol-5-ylsulfonyl)(isobutyl)amino]-1-{4-[(3,4-difluorobenzyl)oxy]benzyl}-2-hydroxypropylcarbamate], the IC50 (in experiment [1] (setting [3]); in the experiment with HIV-1 (strain IIIB) (setting [4]); in experiment [2] (setting [5])) was 0.001 to 0.01 µM throughout.

Consider `CC(C)CN(C[C@@H](O)[C@H](Cc1ccc(OCC(N)=O)cc1)NC(=O)O[C@H]1CO[C@H]2OCC[C@H]21)S(=O)(=O)c1ccc2c(c1)OCO2` [Compound 314, (3R,3aS,6aR)-Hexahydrofuro[2,3-b]furan-3-yl (1S,2R)-1-[4-(2-amino-2-oxoethoxy)benzyl]-3-[(1,3-benzodioxol-5-ylsulfonyl)(isobutyl)amino]-2-hydroxypropylcarbamate], for which the IC50 (in experiment [1] (setting [3]); with HIV-1 (strain IIIB) (setting [4]); in experiment [2] (setting [5])) was 0.01 to 0.1 µM throughout.

In the case of `CC(C)CN(C[C@@H](O)[C@H](Cc1ccc(OCc2ccccc2C#N)cc1)NC(=O)O[C@H]1CO[C@H]2OCC[C@H]21)S(=O)(=O)c1ccc2c(c1)OCO2` [Compound 382, (3R,3aS,6aR)-hexahydrofuro[2,3-b]furan-3-yl (1S,2R)-3-[(1,3-benzodioxol-5-ylsulfonyl)(isobutyl)amino]-1-{4-[(2-cyanobenzyl)oxy]benzyl}-2-hydroxypropylcarbamate], the IC50 (in experiment [1] (setting [3]); with HIV-1 (strain IIIB) (setting [4]); in experiment [2] (setting [5])) was 0.001 to 0.01 µM throughout.

Regarding `CC(C)CN(C[C@@H](O)[C@H](Cc1ccc(OCc2cccc(F)c2)cc1)NC(=O)O[C@H]1CO[C@H]2OCC[C@H]21)S(=O)(=O)c1ccc2c(c1)OCO2` [Compound 378, (3R,3aS,6aR)-hexahydrofuro[2,3-b]furan-3-yl (1S,2R)-3-[(1,3-benzodioxol-5-ylsulfonyl)(isobutyl)amino]-1-{4-[(3-fluorobenzyl)oxy]benzyl}-2-hydroxypropylcarbamate], the figures for the IC50 (in experiment [1] (setting [3]); in the experiment with HIV-1 (strain IIIB) (setting [4]); in experiment [2] (setting [5])) were 0.001 to 0.01 µM, 0.001 to 0.01 µM and 0.01 to 0.1 µM, respectively.

Regarding `CC(C)CN(C[C@@H](O)[C@H](Cc1ccc(OCc2ccc(-c3ccccc3C#N)cc2)cc1)NC(=O)O[C@H]1CO[C@H]2OCC[C@H]21)S(=O)(=O)c1ccc2c(c1)OCO2` [Compound 392, (3R,3aS,6aR)-hexahydrofuro[2,3-b]furan-3-yl (1S,2R)-3-[(1,3-benzodioxol-5-ylsulfonyl)(isobutyl)amino]-1-{4-[(2′-cyano[1,1-biphenyl]-4-yl)methoxy]benzyl}-2-hydroxypropylcarbamate], the IC50 (in experiment [1] (setting [3]); in the experiment with HIV-1 (strain IIIB) (setting [4]); in experiment [2] (setting [5])) was 0.001 to 0.01 µM in each case.

Consider `CCCCNC(=O)CCCOc1ccc(C[C@H](NC(=O)O[C@H]2CO[C@H]3OCC[C@H]32)[C@H](O)CN(CC(C)C)S(=O)(=O)c2ccc3c(c2)OCO3)cc1` [Compound 288, (3R,3aS,6aR)-hexahydrofuro[2,3-b]furan-3-yl (1S,2R)-3-[(1,3-benzodioxol-5-ylsulfonyl)(isobutyl)amino]-1-{4-[4-(butylamino)-4-oxobutoxy]benzyl}-2-hydroxypropylcarbamate], for which the IC50 (in experiment [1] (setting [3]); with HIV-1 (strain IIIB) (setting [4]); in experiment [2] (setting [5])) was 0.001 to 0.01 µM in each case.

On to `CC(C)CN(C[C@@H](O)[C@H](Cc1ccc(OCCCOC(N)=O)cc1)NC(=O)O[C@H]1CO[C@H]2OCC[C@H]21)S(=O)(=O)c1ccc2c(c1)OCO2` [Compound 321, (3R,3aS,6aR)-Hexahydrofuro[2,3-b]furan-3-yl (1S,2R)-1-(4-{3-[(aminocarbonyl)oxy]propoxy}benzyl)-3-[(1,3-benzodioxol-5-ylsulfonyl)(isobutyl)amino]-2-hydroxypropylcarbamate], for which the IC50 (in experiment [1] (setting [3]); in the experiment with HIV-1 (strain IIIB) (setting [4]); in experiment [2] (setting [5])) was 0.001 to 0.01 µM each time.

For `CC(C)CN(C[C@@H](O)[C@H](Cc1ccc(OCCCNc2ccc(C(F)(F)F)cn2)cc1)NC(=O)O[C@H]1CO[C@H]2OCC[C@H]21)S(=O)(=O)c1ccc2c(c1)OCO2` [Compound 272, (3R,3aS,6aR)-hexahydrofuro[2,3-b]furan-3-yl (1S,2R)-3-[(1,3-benzodioxol-5-ylsulfonyl)(isobutyl)amino]-2-hydroxy-1-[4-(3-{[5-(trifluoromethyl)-2-pyridinyl]amino}propoxy)benzyl]propylcarbamate], the IC50 (in experiment [1] (setting [3]); in the experiment with HIV-1 (strain IIIB) (setting [4]); in experiment [2] (setting [5])) was 0.001 to 0.01 µM in each case.

Turning to `COc1ccc(CCOc2ccc(C[C@H](NC(=O)O[C@H]3CO[C@H]4OCC[C@H]43)[C@H](O)CN(CC(C)C)S(=O)(=O)c3ccc4c(c3)OCO4)cc2)cc1` [Compound 206], the IC50 in experiment [1] (setting [6]) lay in the range of 0.01 to 0.1 µM; in the experiment on HIV-1 (strain IIIB), 0.001 to 0.01 µM; in experiment [2] (setting [7]) it was 0.01 to 0.1 µM.

For `CC(C)CN(C[C@@H](O)[C@H](Cc1ccc(OCCc2ccc(F)cc2)cc1)NC(=O)O[C@H]1CO[C@H]2OCC[C@H]21)S(=O)(=O)c1ccc2c(c1)OCO2` [Compound 205], the figures for the IC50 (in experiment [1] (setting [6]); in the experiment on HIV-1 (strain IIIB); in experiment [2] (setting [7])) were 0.01 to 0.1 µM, 0.001 to 0.01 µM and 0.01 to 0.1 µM, respectively.

As to `CC(C)CN(C[C@@H](O)[C@H](Cc1ccc(OC(=O)NC(C)C)cc1)NC(=O)O[C@H]1CO[C@H]2OCC[C@H]21)S(=O)(=O)c1ccc2c(c1)OCO2` [Compound 310, (3R,3aS,6aR)-Hexahydrofuro[2,3-b]furan-3-yl (1S,2R)-3-[(1,3-benzodioxol-5-ylsulfonyl)(isobutyl)amino]-2-hydroxy-1-(4-{[(isopropylamino)carbonyl]oxy}benzyl)propylcarbamate], the IC50 in experiment [1] (setting [3]) was 0.001 to 0.01 µM; in the experiment on HIV-1 (strain IIIB) (setting [4]), 0.001 to 0.01 µM; in experiment [2] (setting [5]) it was 0.01 to 0.1 µM.

Regarding `COC(=O)NCCOc1ccc(C[C@H](NC(=O)O[C@H]2CO[C@H]3OCC[C@H]32)[C@H](O)CN(CC(C)C)S(=O)(=O)c2ccc3c(c2)OCO3)cc1` [Compound 356, (3R,3aS,6aR)hexahydrofuro[2,3-b]furan-3-yl (1S,2R)-3-[(1,3-benzodioxol-5-ylsulfonyl)(isobutyl)amino]-2-hydroxy-1-[4-(2-[(methoxycarbonyl)amino]ethoxy)benzyl]propylcarbamate], the IC50 is 0.001 to 0.01 µM in experiment [1] (Human immunodeficiency virus 1, MT4, read-out: EP13 mutant IC50); 0.001 to 0.01 µM in the experiment with HIV-1 (strain IIIB) (setting [4]); below 0.001 µM in experiment [2] (Human immunodeficiency virus 1, MT4, read-out: D545701-14 mutant - IC50).

Regarding `CC(C)CN(C[C@@H](O)[C@H](Cc1ccc(OCCCC(F)(F)F)cc1)NC(=O)O[C@H]1CO[C@H]2OCC[C@H]21)S(=O)(=O)c1ccc2c(c1)OCCO2` [Compound 204, (3R,3aS,6aR)-hexahydrofuro[2,3-b]furan-3-yl (1S,2R)-3-[(2,3-dihydro-1,4-benzodioxin-6-ylsulfonyl)(isobutyl)amino]-2-hydroxy-1-[4-(4,4,4-trifluorobutoxy)benzyl]propylcarbamate], the IC50 (in experiment [1] (setting [3]); in the experiment on HIV-1 (strain IIIB) (setting [4]); in experiment [2] (setting [5])) was 0.001 to 0.01 µM throughout.

(Values after patent US8455497B2, “Inhibitors of aspartyl protease” (Vertex Pharmaceuticals Incorporated, priority 1999, dated 2013).)
